Results as given in PubChem BioAssay (NCI).
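96-well plates; 48 h exposure; 5 concentrations. Endpoints by linear interpolation between flanking doses. Not reached: highest tested concentration assigned. Here, GI50 denotes the concentration required for 50% inhibition of growth. TGI denotes the concentration required for complete inhibition of growth.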

How the values were obtained:
Assay in all cases: DTP human tumour cell line panel, 48 h
[1] = tested on: SK-MEL-5 melanoma
[2] = tested on: XF 498 CNS
[3] = tested on: LOX IMVI melanoma
[4] = tested on: NCI-H460 lung
[5] = tested on: M19-MEL melanoma
[6] = tested on: COLO 205 colon
[7] = tested on: SW-620 colon
[8] = tested on: DLD-1 colon
[9] = tested on: HOP-18 NSCLC
[10] = tested on: DMS 114 small cell lung
[11] = tested on: UO-31 renal
[12] = tested on: 786-0 renal
[13] = tested on: SR leukemia

SMILES: O=C(O)C1CCC(=O)N1S(=O)(=O)c1ccccc1 (stereo not given)
- TGI [1]: > 100 µM
- TGI [2]: > 100 µM
- TGI [3]: > 100 µM
- TGI [4]: > 100 µM
- TGI [5]: > 100 µM
- TGI [6]: > 100 µM
- TGI [7]: > 100 µM
- TGI [8]: > 100 µM
- TGI [9]: > 100 µM
- TGI [10]: > 100 µM
- TGI [11]: > 100 µM

SMILES: CC(=O)C=NCC(=O)O
- TGI [1]: > 100 µM
- TGI [12]: > 100 µM
- TGI [3]: > 100 µM
- TGI [13]: > 100 µM
- TGI [4]: > 100 µM
- TGI [6]: > 100 µM
- TGI [7]: > 100 µM

SMILES: CC(=O)OCC1=C(C(=O)O)C(c2ccc3c(c2)OCO3)c2cc3c(cc2O1)OCO3 (stereo not given)
- TGI [1]: > 100 µM
- TGI [2]: > 100 µM
- TGI [3]: > 100 µM
- TGI [4]: > 100 µM
- TGI [5]: > 100 µM
- TGI [6]: > 100 µM
- TGI [7]: > 100 µM
- TGI [8]: > 100 µM
- TGI [9]: > 100 µM
- TGI [10]: > 100 µM
- TGI [11]: > 100 µM

SMILES: O=C(Nc1c(C(=O)NC2CCCCC2)[nH]c(=O)[nH]c1=O)c1ccc(Cl)cc1
- TGI [1]: > 100 µM
- TGI [2]: > 100 µM
- TGI [3]: > 100 µM
- TGI [13]: > 100 µM
- TGI [4]: > 100 µM
- TGI [5]: > 100 µM
- TGI [6]: > 100 µM
- TGI [7]: > 100 µM
- TGI [8]: > 100 µM
- TGI [9]: > 100 µM
- TGI [10]: > 100 µM
- TGI [11]: > 100 µM

SMILES: CCCC(N)C(=O)c1ccccc1 (stereo not given)
- TGI [1]: > 100 µM
- TGI [2]: > 100 µM
- TGI [12]: > 100 µM
- TGI [3]: > 100 µM
- TGI [13]: > 100 µM
- TGI [4]: > 100 µM
- TGI [6]: > 100 µM
- TGI [7]: > 100 µM
- TGI [8]: > 100 µM
- TGI [9]: > 100 µM
- TGI [10]: > 100 µM
- TGI [11]: > 100 µM

SMILES: COc1ccc(-c2nn(-c3cccc(NC(=O)Nc4ccccc4)c3)cc2-c2ccncc2)cc1Cl
- GI50 [3]: 3.25 µM
- TGI [3]: 17 µM
- GI50 [13]: 2.35 µM
- TGI [13]: 6.69 µM
- GI50 [4]: 2.06 µM
- TGI [4]: 4.48 µM
- GI50 [6]: 2.56 µM
- TGI [6]: 6.69 µM
- GI50 [7]: 2.51 µM
- TGI [7]: 7.36 µM
- GI50 [11]: 1.5 µM
- TGI [11]: 4.02 µM

SMILES: c1ccc(N=c2nc(N3CCOCC3)ss2)cc1
- TGI [1]: > 100 µM
- TGI [2]: 32.1 µM
- TGI [12]: 30.1 µM
- TGI [3]: 30.1 µM
- TGI [13]: 58.3 µM
- TGI [4]: 34.7 µM
- TGI [5]: 32 µM
- TGI [7]: 21.8 µM
- TGI [8]: 28.3 µM
- TGI [9]: > 100 µM
- TGI [10]: 30.2 µM
- TGI [11]: 50.2 µM

SMILES: Fc1ccc(-c2nn3c(-c4cc(C(F)(F)F)cc(C(F)(F)F)c4)nnc3s2)cc1
- GI50 [1]: 4.42 µM
- TGI [1]: > 50 µM
- GI50 [4]: 1.62 µM
- TGI [4]: > 50 µM
- GI50 [6]: > 50 µM
- TGI [6]: > 50 µM
- GI50 [7]: > 50 µM
- TGI [7]: > 50 µM
- GI50 [11]: 1.32 µM
- TGI [11]: > 50 µM

SMILES: CC(=O)O[C@H]1C=CC(=O)C(C)CC1C (stereo not given in full)
- TGI [1]: > 100 µM
- TGI [2]: > 100 µM
- TGI [3]: > 100 µM
- TGI [13]: > 100 µM
- TGI [4]: > 100 µM
- TGI [5]: > 100 µM
- TGI [6]: > 100 µM
- TGI [7]: > 100 µM
- TGI [8]: > 100 µM
- TGI [10]: > 100 µM
- TGI [11]: > 100 µM

SMILES: Clc1ccc(CNc2nc(Cl)c3[nH]cnc3n2)cc1Cl
- TGI [1]: 37.4 µM
- TGI [12]: > 100 µM
- TGI [13]: 77.6 µM
- TGI [4]: 73.3 µM
- TGI [6]: 51.8 µM
- TGI [11]: 60 µM

SMILES: N#CC(Nc1cccc(C(F)(F)F)c1)c1ccccc1C(F)(F)F (stereo not given)
- TGI [1]: 32.1 µM
- TGI [2]: 12.9 µM
- TGI [3]: 14.5 µM
- TGI [13]: 25.9 µM
- TGI [4]: 29.9 µM
- TGI [5]: 18 µM
- TGI [6]: 10.6 µM
- TGI [7]: 11 µM
- TGI [8]: 29.5 µM
- TGI [9]: 26.4 µM
- TGI [10]: 23.8 µM
- TGI [11]: 31.9 µM

SMILES: CCOc1ccc(/C(C=O)=C(\Cl)c2ccc(OC)c(OC)c2)cc1
- TGI [1]: > 100 µM
- TGI [2]: 79.2 µM
- TGI [3]: > 100 µM
- TGI [4]: > 100 µM
- TGI [5]: > 100 µM
- TGI [6]: > 100 µM
- TGI [7]: > 100 µM
- TGI [8]: > 100 µM
- TGI [9]: > 100 µM
- TGI [10]: > 100 µM
- TGI [11]: > 100 µM

SMILES: CCC(=O)NC(Nc1cccc(F)c1)(C(F)(F)F)C(F)(F)F
- TGI [1]: > 100 µM
- TGI [3]: > 100 µM
- TGI [13]: > 100 µM
- TGI [4]: > 100 µM
- TGI [6]: > 100 µM
- TGI [7]: > 100 µM
- TGI [11]: > 100 µM

SMILES: O=C(Nc1ccc(Sc2ccc(N=Nc3c(O)c(S(=O)(=O)O)cc4cc(S(=O)(=O)O)ccc34)cc2)cc1)c1ccc(N=Nc2c(O)ccc3c(S(=O)(=O)O)cc(S(=O)(=O)O)cc23)cc1
- TGI [1]: 43.3 µM
- TGI [2]: 91.7 µM
- TGI [12]: > 100 µM
- TGI [3]: 34.8 µM
- TGI [13]: 85.2 µM
- TGI [4]: > 100 µM
- TGI [5]: 68.6 µM
- TGI [6]: 35 µM
- TGI [7]: > 100 µM
- TGI [8]: > 100 µM
- TGI [9]: > 100 µM
- TGI [11]: > 100 µM

SMILES: Cc1cc2c(C(C)C)c(O)c(O)c(C=NCCO)c2c(O)c1-c1c(C)cc2c(C(C)C)c(O)c(O)c(C=NCCO)c2c1O
- TGI [1]: 3.23 µM
- TGI [2]: 8.43 µM
- TGI [12]: 4.83 µM
- TGI [3]: 3.11 µM
- TGI [13]: 3.78 µM
- TGI [4]: 2.41 µM
- TGI [5]: 3.62 µM
- TGI [6]: 3.03 µM
- TGI [7]: 16.7 µM
- TGI [8]: 11.7 µM
- TGI [9]: 5.37 µM
- TGI [10]: 2.7 µM
- TGI [11]: 11 µM

SMILES: NC1(C(=O)O)CCc2ccc(N(CCCl)CCCl)cc2C1 (stereo not given)
- TGI [1]: > 100 µM
- TGI [2]: > 100 µM
- TGI [3]: > 100 µM
- TGI [4]: > 100 µM
- TGI [5]: > 100 µM
- TGI [6]: > 100 µM
- TGI [7]: > 100 µM
- TGI [8]: > 100 µM
- TGI [9]: > 100 µM
- TGI [10]: > 100 µM
- TGI [11]: > 100 µM
